The source made the active and inactive calls. The calls are words filed in the database; no cut-off is given here.
Tests used:
[1] = target: Cytosolic purine 5'-nucleotidase (Homo sapiens) (UniProt P49902); test: Inhibition of basal nucleotidase activity of recombinant NT5C2 (unknown origin) pre-incubated for 10 mins before IMP substrate addition and further incubated for 5 mins in absence of ATP by malachite green assay
[2] = target: Cytosolic purine 5'-nucleotidase (Homo sapiens) (UniProt P49902); test: Inhibition of nucleotidase activity of recombinant NT5C2 (unknown origin) pre-incubated for 10 mins before IMP substrate addition and further incubated for 5 mins in presence of 0.3 mM ATP by malachite green assay relative to control

Chain of Cytosolic purine 5'-nucleotidase (Homo sapiens) (P49902 whole entry): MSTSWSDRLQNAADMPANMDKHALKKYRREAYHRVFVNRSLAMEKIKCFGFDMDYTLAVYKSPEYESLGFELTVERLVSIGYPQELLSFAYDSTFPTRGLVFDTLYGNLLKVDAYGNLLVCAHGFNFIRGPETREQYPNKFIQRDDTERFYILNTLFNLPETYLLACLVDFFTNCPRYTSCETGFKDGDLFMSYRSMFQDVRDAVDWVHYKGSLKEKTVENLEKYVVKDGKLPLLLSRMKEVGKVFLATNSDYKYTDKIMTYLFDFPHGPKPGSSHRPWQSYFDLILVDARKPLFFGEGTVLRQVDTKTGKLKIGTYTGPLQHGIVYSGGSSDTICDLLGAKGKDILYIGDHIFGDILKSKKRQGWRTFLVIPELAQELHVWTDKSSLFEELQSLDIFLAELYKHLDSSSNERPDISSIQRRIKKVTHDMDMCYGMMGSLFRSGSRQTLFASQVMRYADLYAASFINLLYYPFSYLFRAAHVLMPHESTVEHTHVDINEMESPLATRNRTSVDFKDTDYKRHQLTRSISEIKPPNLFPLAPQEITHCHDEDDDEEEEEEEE

inhibition [1] | inhibition [2] | SMILES
Active | 49% | CCc1c(C)nc(N)nc1NCCc1csc(N)n1
Active | 85% | Nc1nc(N2CCOCC2)cc(N2CCC(c3cc(CC(=O)O)[nH]n3)CC2)n1
Active | 42% | Nc1nc2c(c(N3CCc4nc(N)sc4C3)n1)CCCC2
Active | 29% | CCc1nc(N)nc(N2CCCOC(CN3CCOCC3)C2)c1C (stereo unspecified)
Active | 75% | Nc1nc2c(c(NCCc3csc(N)n3)n1)CCCC2
Active | 62% | Cc1cc(N2CCC(c3cc(CC(=O)O)n[nH]3)CC2)nc(N2CCCC2)n1
Active | 49% | Cc1nc(N2CCC(c3cc(CC(=O)O)n[nH]3)CC2)cc(-n2cccn2)n1
Active | 54% | CCc1cc(NCCCc2csc(N)n2)nc(N)n1

Source: ChEMBL document CHEMBL4417639, “Nt5c2 inhibitors useful for the treatment of chemotherapy resistant acute lymphoblastic leukemia” (2018)
